Consider 16 compounds from publication PMC10302753, “Natural-Product-Inspired Microwave-Assisted Synthesis of Novel Spirooxindoles as Antileishmanial Agents: Synthesis, Stereochemical Assignment, Bioevaluation, SAR, and Molecular Docking Studies” (Molecules, 2023).

Values after ≈ are worked out from the molar mass of the structure shown. “Also recorded” adds a separate entry of the source. Where two headings read alike, the source gives them in different places.

Series [1] has as its system promastigotes of Leishmania donovani (MHOM/IN/1983/AG83). Put plainly: In vitro antileishmanial activity, Trypan blue dye exclusion method. The class given is cell-based. The conditions noted are these: 72 h, L. donovani promastigotes, 22 ± 1 °C, 50% growth inhibition, read-out: IC50 Using Trypan Blue Dye Exclusion Method. The protocol: The compounds (23a–f, 24a–f, and 25a–g) were initially screened for their in vitro antileishmanial activity against promastigotes of Leishmania donovani (MHOM/IN/1983/AG83) utilizing the Trypan blue dye exclusion method and the plasmid relaxation assay using amphotericin B and camphothesin as standard reference drugs, respectively.
The promastigotes were harvested from the culture vials, counted, and 2 × 10^6 cells/well were seeded in a 48-well culture plate. The antileishmanial screening of all the derivatives, 23a–f, 24a–f, and 25a–g, as well as the positive control, was performed at various concentrations (2 μg/mL, 4 μg/mL, 8 μg/mL, and 16 μg/mL) added in triplicate. The plate was incubated at 22 ± 1 °C in the BOD incubator for 72 h. After 72 h, each well was counted for the number of viable parasites using the Trypan blue dye exclusion method, and the percentage growth inhibition was calculated by using the formula: Percentage viability=No. of viable cells in treated well/No. of viable cells in blank well×100 Percentage growth inhibition = 100 − percentage viability […]
The IC50 (inhibitory concentration at which 50% of the parasites were dead) value was obtained by plotting a linear dose–response curve in SPSS software (Version 23). […]
Parasite strain and culture conditions:
The SSG-sensitive Indian strain of Leishmania donovani (MHOM/IN/1983/AG83) obtained from CSIR-IICB, Kolkata, was used for the study. The promastigotes of these strains were maintained in Medium 199+10% FCS (Foetal Calf Serum) by serial sub-culturing at an ambient temperature of 22±1°C every 72 […]
In vitro antileishmanial activity
Trypan blue dye exclusion method
For carrying out the antileishmanial activity in vitro, promastigotes of Leishmania donovani were used.
The promastigotes were harvested from the culture vials, counted, and 2 × 10^6 cells/well were seeded in a 48-well culture plate. Further, compounds at various concentrations (2 μg/mL, 4 μg/mL, 8 μg/mL and 16 μg/mL) were added in triplets. No drug was added to the well serving as a blank, and amphotericin B was added to the well serving as the positive control. The plate was incubated at 22 ± 1°C in the BOD incubator for 72 hours. After 72 hours, each well was counted for the number of viable parasites using the trypan blue dye exclusion method, and the percentage growth inhibition was calculated by using the formula:
Percentage growth inhibition = 100 – percentage viability
IC50 (inhibitory concentration at which 50% of the parasites were dead) was obtained by plotting a linear dose-response curve in SPSS software (Version 23). […]
8.0) after being stained with ethidium bromide (0.5 µg/mL). Plotting the percentage of supercoiled DNA versus drug concentrations allowed researchers to determine the 50% inhibition concentration (IC50) values of LTopIB inhibition as the 50% reduction of supercoiled DNA.
Characterization data of spirooxindole derivatives (23a-f, 24a-f, 25a-g).
(1'S,2'R,3S,7a'S)-1'-(4-chlorophenyl)-2'-(4-fluorobenzoyl)-5-methyl-1',2',5',6',7',7a'-hexahydrospiro [indoline-3,3'-pyrrolizin]-2-one (23a): The product was synthesized utilizing the microwave-irradiated approach, and purified by column chromatography over silica gel using hexane/EtOAc (8:2) as an eluent; Physical Appearance: light yellow solid; Yield: 98%; Rf (EtOAc/hexane: 1:1) = 0.48; m.p. 182-184 °C; […]
(1'S,2'R,3S,7a'S)-5-fluoro-2'-(4-fluorobenzoyl)-1'-(4-methoxyphenyl)-1',2',5',6',7',7a'-hexahydro spiro[indoline-3,3'-pyrrolizin]-2-one (23b): The product was synthesized utilizing the microwave-irradiated approach, and purified by column chromatography over silica gel using hexane/EtOAc (7:3) as an eluent; Physical Appearance: light yellow solid; Yield: 66%; Rf (EtOAc/hexane: 1:1) = 0.45; m.p. 161-

In series [2] the target is Leishmania DNA topoisomerase type IB (purified recombinant LTopIB) (Leishmania donovani, UniProt A0A3Q8IHS4+Q8WQM6). Put plainly: Plasmid relaxation assay (relaxation of supercoiled plasmid DNA). The class given is biochemical. The conditions noted are these: for IC50: LTopIB inhibition, 50% reduction of supercoiled DNA, read-out: IC50 Using Plasmid Relaxation Assay; for LTopIB inhibition, result in words: recombinant enzyme in vitro, initial test at 100 µM, then dose/response. The protocol:
The relaxation of supercoiled plasmid DNA is the method used for the determination of LTopIB activity. Various doses of each compound were treated with one unit of pure LTopIB (the enzyme to relax 0.5 µg of supercoiled DNA for 30 min at 37 °C) for 20 min at 4 °C. The reaction mixture, including 0.5 μg of supercoiled pBluescript SK(−) plasmid, 10 mM Tris-HCl buffer pH 7.5, 5 mM MgCl2, 0.1 mM EDTA, 15 µg/mL of bovine serum albumin, and 150 mM KCl, was then added in a final volume of 20 μL. After 30 min at 37 °C, the reaction mixtures were stopped by adding 4 μL of loading buffer, which included 5% sarkosyl, 0.12% bromophenol blue, and 25% glycerol. By electrophoresis, the topoisomers were separated on 1% agarose gels and electrophoresed at 2 V/cm for 16 h in a 0.1 M Tris-borate-EDTA buffer (pH 8.0) after being stained with ethidium bromide (0.5 µg/mL). Plotting the percentage of supercoiled DNA versus drug concentrations allowed researchers to determine the 50% inhibition concentration (IC50) values of LTopIB inhibition as the 50% reduction of supercoiled DNA [72].
Because of the presence of spirooxindole systems in the structure of these compounds, we aimed to assess their inhibitory potential on purified recombinant LTopIB measuring the relaxation of supercoiled plasmid DNA. In this regard, all spirooxindole derivatives were assessed for LTopIB inhibition through the prevention of DNA relaxation in a circular DNA plasmid. […] After this initial test, potential inhibitor dose/response curves were performed to obtain their IC50 values. […]
The relaxation of supercoiled plasmid DNA is the method used for the determination of LTopIB activity.
Various doses of each compound were treated with one unit of pure LTopIB (the enzyme to relax 0.5 µg of supercoiled DNA for 30 min at 37 °C) for 20 min at 4 °C. The reaction mixture including 0.5 μg of supercoiled pBluescript SK(−) plasmid, 10 mM Tris-HCl buffer pH 7.5, 5 mM MgCl2, 0.1 mM EDTA, 15 µg/mL bovine serum albumin, and 150 mM KCl was then added in a final volume of 20 μL. After 30 minutes at 37 °C, the reaction mixtures were stopped by adding 4 μL of loading buffer, which included 5% sarkosyl, 0.12% bromophenol blue, and 25% glycerol. By electrophoresis, the topoisomers were separated in 1% agarose gels were electrophoresed at 2 V/cm for 16 hours in a 0.1 M Tris-borate-EDTA buffer (pH 8.0) after being stained with ethidium bromide (0.5 µg/mL). Plotting the percentage of supercoiled DNA versus drug concentrations allowed researchers to determine the 50% inhibition concentration (IC50) values of LTopIB inhibition as the 50% reduction of supercoiled DNA. […]

For series [3], the system named is promastigotes and the amastigotes forms of Leishmania (L.) species. Further details: method as in PMID 24433962, doi:10.1016/j.molstruc.2019.03.032, PMID 34311084, PMID 36444862. The following applies: Figure 2; cited from earlier work.

Leishmania DNA topoisomerase type IB (purified recombinant LTopIB), sequence (Q8WQM6 entry or part of it): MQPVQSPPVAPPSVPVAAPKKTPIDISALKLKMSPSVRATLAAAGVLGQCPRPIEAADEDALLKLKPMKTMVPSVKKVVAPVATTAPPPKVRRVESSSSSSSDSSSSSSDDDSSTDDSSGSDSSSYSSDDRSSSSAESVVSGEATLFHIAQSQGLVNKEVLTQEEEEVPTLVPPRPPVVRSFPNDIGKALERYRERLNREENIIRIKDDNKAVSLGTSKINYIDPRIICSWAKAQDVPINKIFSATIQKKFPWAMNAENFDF
Leishmania DNA topoisomerase type IB (purified recombinant LTopIB), sequence (A0A3Q8IHS4 entry or part of it): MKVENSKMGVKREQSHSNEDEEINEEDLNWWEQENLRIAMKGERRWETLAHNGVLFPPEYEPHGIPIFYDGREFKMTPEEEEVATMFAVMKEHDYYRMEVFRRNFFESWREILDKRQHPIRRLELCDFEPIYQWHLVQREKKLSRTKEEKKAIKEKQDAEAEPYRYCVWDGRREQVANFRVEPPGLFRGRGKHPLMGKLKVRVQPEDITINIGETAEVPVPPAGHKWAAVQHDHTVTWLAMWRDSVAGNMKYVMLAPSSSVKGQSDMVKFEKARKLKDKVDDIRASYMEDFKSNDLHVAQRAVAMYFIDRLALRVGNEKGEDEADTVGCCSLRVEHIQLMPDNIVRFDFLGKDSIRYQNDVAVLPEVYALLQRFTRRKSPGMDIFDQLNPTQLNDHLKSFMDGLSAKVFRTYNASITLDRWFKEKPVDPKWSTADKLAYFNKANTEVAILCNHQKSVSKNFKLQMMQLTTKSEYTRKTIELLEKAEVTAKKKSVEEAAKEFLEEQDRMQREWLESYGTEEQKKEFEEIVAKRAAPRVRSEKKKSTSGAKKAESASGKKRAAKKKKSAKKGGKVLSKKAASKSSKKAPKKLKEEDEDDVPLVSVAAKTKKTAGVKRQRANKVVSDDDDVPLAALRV

On to `COc1ccc([C@@H]2[C@@H](C(=O)c3ccc(F)cc3)[C@]3(C(=O)Nc4ccc(F)cc43)N3CCC[C@@H]23)cc1` [23b, (1'S,2'R,3S,7a'S)-5-fluoro-2'-(4-fluorobenzoyl)-1'-(4-methoxyphenyl)-1',2',5',6',7',7a'-hexahydrospiro[indoline-3,3'-pyrrolizin]-2-one], for which the melting point is 161 to 163 °C. Further, the half-maximal inhibitory concentration (IC50) in series [1] (Leishmania donovani) is more than 20 µM. Also, the IC50 in series [2] is more than 100 µM.
With `COc1ccc(C2C3CCCN3C3(C(=O)Nc4ccc(F)cc43)C2C(=O)c2ccc(Br)cc2)cc1` (stereo not shown) [23c], the melting point lay in the range of 126 to 128 °C. In addition, the IC50 in series [1] (Leishmania donovani) was more than 20 µM. The concentration for half-maximal inhibition (IC50) in series [2] was more than 100 µM.
On to `COc1ccc(C2C3CCCN3C3(C(=O)Nc4ccc(OC)cc43)C2C(=O)c2ccc(Br)cc2)cc1` (stereo not shown) [23d], for which the melting point lay in the range of 107 to 109 °C. In series [1], the IC50 amounted to 7.78 µM. Besides, the IC50 in series [1] (Leishmania donovani) was not above 10 µM. The IC50 in series [2] amounted to 53.6 µM.
For `COc1ccc(C2C3CCCN3C3(C(=O)Nc4ccc([N+](=O)[O-])cc43)C2C(=O)c2ccc(Br)cc2)cc1` (stereo not shown) [23e], the melting point is 111 to 113 °C. In addition, the IC50 in series [1] (Leishmania donovani) was more than 20 µM. Also, the IC50 in series [2] was more than 100 µM.
`O=C(c1ccccc1)[C@@H]1[C@@H](c2ccccc2)[C@@H]2CCCN2[C@@]12C(=O)Nc1ccc(Br)cc12` [23f, (1′S,2′R,3S,7a’S)-2′-benzoyl-5-bromo-1′-phenyl-1′,2′,5′,6′,7′,7a’-hexahydrospiro[indolin-3,3′-pyrrolizin]-2-one] had a melting point of 175 to 177 °C. Moreover, in series [1] (Leishmania donovani), the concentration for half-maximal inhibition (IC50) is more than 20 µM. In addition, in series [2], the concentration for half-maximal inhibition (IC50) is more than 100 µM.
In the case of `COc1ccc2c(c1)[C@]1(N[C@@H](Cc3ccccc3)[C@H](c3ccc(Cl)cc3)[C@H]1C(=O)c1ccc([N+](=O)[O-])cc1)C(=O)N2` [24a], in series [1] (Leishmania donovani), the IC50 was 2.43 µM. In addition, in series [2], the IC50 amounted to 17.3 µM and the “LTopIB inhibition, result in words” value is listed as “showed potential results; also recorded: potent LTopIB inhibitors; also recorded: able to inhibit the recombinant enzyme in vitro”.
Regarding `Cc1ccc(C(=O)[C@@H]2[C@@H](c3ccc(Br)cc3)[C@H](Cc3ccccc3)N[C@@]23C(=O)Nc2ccc([N+](=O)[O-])cc23)cc1` [24b], the melting point was in the range of 121 to 122 °C. The IC50 in series [1] is 5.36 µM. For the same compound, the IC50 in series [1] (Leishmania donovani) was not above 10 µM. Besides, the IC50 in series [2] was determined as 37.6 µM.
In the case of `Cc1ccc2c(c1)[C@]1(N[C@@H](Cc3ccccc3)[C@H](c3ccc(Cl)cc3)[C@H]1C(=O)c1ccc([N+](=O)[O-])cc1)C(=O)N2` [24c], the melting point is 135 to 137 °C. Also, the IC50 in series [1] (Leishmania donovani) is more than 20 µM. Moreover, the IC50 in series [2] is more than 100 µM.
`O=C(c1ccc(F)cc1)[C@@H]1[C@@H](c2ccc(Cl)cc2)[C@H](Cc2ccccc2)N[C@@]12C(=O)Nc1ccccc12` [24d]: the melting point lay within 104 to 106 °C. For the same compound, in series [1] (Leishmania donovani), the IC50 was more than 20 µM. The half-maximal inhibitory concentration (IC50) in series [2] is more than 100 µM.
Turning to `O=C(c1ccc([N+](=O)[O-])cc1)[C@@H]1[C@@H](c2ccc(Cl)cc2)[C@H](Cc2ccccc2)N[C@@]12C(=O)Nc1c(Br)cccc12` [24e], the IC50 in series [1] (Leishmania donovani) was determined as 0.96 µM. Besides, in series [2], the IC50 was 15.7 µM and the “LTopIB inhibition, result in words” value is on record as “showed potential results; also recorded: potent LTopIB inhibitors; also recorded: able to inhibit the recombinant enzyme in vitro”.
Consider `Cc1ccc(C(=O)C2C(c3ccc(Br)cc3)C(Cc3ccccc3)NC23C(=O)Nc2ccc(I)cc23)cc1` (stereo not shown) [24f], for which, in series [1] (Leishmania donovani), the half-inhibitory concentration (IC50) is 1.62 µM. Moreover, in series [2], the IC50 turned out to be 19.6 µM and the “LTopIB inhibition, result in words” value is recorded as “showed potential results; also recorded: potent LTopIB inhibitors; also recorded: able to inhibit the recombinant enzyme in vitro”.
In turn, `COc1ccc([C@H]2[C@H](Cc3cc4ccccc4[nH]3)N[C@@]3(C(=O)Nc4ccccc43)[C@@H]2C(=O)c2ccc(Br)cc2)cc1` [25b] gave a melting point of 118 to 120 °C. The IC50 in series [1] (Leishmania donovani) is more than 10 µM. The half-inhibitory concentration (IC50) in series [2] amounted to 89.1 µM.
For the compound `COc1ccc(C2C(Cc3c[nH]c4ccccc34)NC3(C(=O)Nc4ccc(F)cc43)C2C(=O)c2ccc(C3CCCCC3)cc2)cc1` (stereo not shown) [25d], in series [1] (Leishmania donovani), the IC50 was found to be 3.55 µM. Moreover, in series [2], the IC50 was 27.2 µM and the “LTopIB inhibition, result in words” value is recorded as “showed potential results; also recorded: potent LTopIB inhibitors; also recorded: able to inhibit the recombinant enzyme in vitro”.
For the compound `C[C@@H]1[C@H](O)[C@@H](C)/C=C/C=C/C=C/C=C/C=C/C=C/C=C/[C@H](O[C@@H]2O[C@H](C)[C@@H](O)[C@H](N)[C@@H]2O)C[C@@H]2O[C@](O)(C[C@@H](O)C[C@@H](O)[C@H](O)CC[C@@H](O)C[C@@H](O)CC(=O)O[C@H]1C)C[C@H](O)[C@H]2C(=O)O` [Amphotericin B, reference compound], the IC50 in series [1] (Leishmania donovani) came out at 0.06 µM.
`Cc1ccc(C(CC(=O)c2ccccc2)C2C(=O)Nc3ccccc32)cc1` (stereo not shown) [compound 16] returned a melting point of 112 to 114 °C. The EC50 in series [3] is 16.2 µg/mL (≈ 45.6 µM).
`O=C(c1ccc(F)cc1)C1C(c2ccc(Cl)cc2Cl)C2CSCN2C12C(=O)Nc1ccccc12` (stereo not shown) [compound 17]: the melting point is 103 to 105 °C. Besides, the IC50 in series [3] was 39.8 ± 0.43 µM.
